Measured values from patent US7790172B2, “Methods for reducing nasopharyngeal colonization of non-typable Haemophilus influenzae with synthetic chimeric fimbrin peptides” (priority 1995, dated 2010).
In brackets after ≈: the same amount, converted by molar mass. Peptide text beside a SMILES is read from it.

How the values were obtained:
[1] = target: T1, NTHi #1128 fimbrial protein (Haemophilus influenzae, UniProt P45996); assay type: in vivo, non-typable Haemophilus influenzae; details: chinchilla sera 2 weeks after second dose; ELISA
T1 construct: isolated, reassembled, homologous fimbrial protein from NTHi; endogenous in cells; host or cells: NTHi strain #1128 (protein isolated from the bacterial outer membrane)
T1 sequence (P45996 22-359): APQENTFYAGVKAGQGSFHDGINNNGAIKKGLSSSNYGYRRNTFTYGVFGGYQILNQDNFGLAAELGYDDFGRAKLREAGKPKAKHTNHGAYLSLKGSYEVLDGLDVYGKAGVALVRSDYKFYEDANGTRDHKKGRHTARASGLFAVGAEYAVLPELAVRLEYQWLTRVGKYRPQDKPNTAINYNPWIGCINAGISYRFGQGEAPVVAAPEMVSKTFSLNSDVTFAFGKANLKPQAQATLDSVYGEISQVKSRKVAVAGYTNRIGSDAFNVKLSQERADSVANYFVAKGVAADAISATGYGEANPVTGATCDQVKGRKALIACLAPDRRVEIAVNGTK
Procedure: (§1) The chinchillas received a second dose of 50 μg of either the LB1 or LB2 in incomplete Freund's adjuvant 30 days later. Sera was obtained 2 weeks after the second dose.

[2] = tested on: fimbrin from NTHi #1128 and NTHi #86-028NP; test: Western immunoblot of chinchilla antisera; assay type: binding, non-typable Haemophilus influenzae; details: for Western immunoblot recognition by antisera of heterologous fimbrin: NTHi #86-028NP; for Western immunoblot recognition by antisera of homologous fimbrin / peptides: NTHi #1128 OMP preparation, isolated fimbrin, LB1, LB2
Source text: FIG. 2A is a western immunoblot of chinchilla anti-LB1 antisera. Lane a contains a mixture of sera and NTHi #1128 enriched OMP preparation. Lane b contains a mixture of sera and isolated fimbrin from NTHi #1128. Lane c contains a mixture of sera and LB1. Lane d contains a mixture of sera and LB2. Lane e contains a mixture of sera and NTHi #86-028NP enriched OMP preparation. Lane f contains a mixture of sera and isolated fimbrin from NTHi #86-028NP. The lane marked “Std” contains pre-stained molecular mass markers; mass in kDa is given along left side of immunoblot.
FIG. 2B is a western immunoblot of chinchilla anti-LB2 antisera. Lane a contains a mixture of sera and NTHi #1128 enriched OMP preparation. Lane b contains a mixture of sera and isolated fimbrin from NTHi #1128. Lane c contains a mixture of sera and LB1. Lane D contains a mixture of sera and LB2. Lane e contains a mixture of sera and NTHi #86-028NP enriched OMP preparation. Lane f contains a mixture of sera and isolated fimbrin from NTHi #86-028NP. The lane marked “Std” contains pre-stained molecular mass markers; mass in kDa is given along left side of immunoblot.
FIG. 2C is a western immunoblot of chinchilla anti-fimbrial protein antisera. Lane a contains a mixture of sera and NTHi #1128 enriched OMP preparation. Lane b contains a mixture of sera and isolated fimbrin from NTHi #1128. Lane c contains a mixture of sera and LB1. Lane d contains a mixture of sera and LB2. Lane e contains a mixture of sera and NTHi #86-028NP enriched OMP preparation. Lane f contains a mixture of sera and isolated fimbrin from NTHi #86-028NP. The lane marked “Std” contains pre-stained molecular mass markers; mass in kDa is given along left side of immunoblot.
as §1

[3] = tested on: native fimbriae of whole, unfixed NTHi strain #1128; test: Indirect immunogold labeling of unfixed NTHi with chinchilla antiserum (transmission electron micrograph); assay type: binding, non-typable Haemophilus influenzae
Source text: FIG. 3 is a transmission electron micrograph of two unfixed NTHi strain #1128 cells, shown at bottom of the Figure, which were indirectly immuno-labeled with chinchilla anti-LB1IFA serum and 10 nm gold-chimeric Protein A.
Two unfixed NTHi strain #1128 cells were indirectly immunolabeled with chinchilla anti-LB1IFA serum and 10 nm gold-chimeric Protein A. The preparation was subjected to stable, low-angle shadow casting with platinum and palladium to impart a sense of height to low-profile fimbriae.

NTHi strain 1128 = test: Nasopharyngeal colonization by NTHi in immunized chinchillas (nasopharyngeal lavage); assay type: in vivo, chinchilla
Procedure: Nasopharyngeal colonization by NTHi was/were examined in two separate trials, study A and study B.
In study A, five cohorts of four chinchillas each were actively immunized with one of the following preparations: in complete Freund's adjuvant or a saline control preparation; 100 μg of the synthetic chimeric fimbrin peptide LB1, 100 μg of a total outer membrane protein preparation from strain #1128; 100 μg of the synthetic chimeric fimbrin peptide LB2; 10 μg isolated fimbrin protein preparation from strain #1128. The total outer membrane preparation and fimbrin were assessed for endotoxin content prior to their use as an immunogen via a chromogenic Amoebocyte Lysate assay which is commercially available from Whittaker Bioproducts under the designation QCL-1000. The preparations were subcutaneously injected into the chinchillas.
Then 30 days later the animals received a booster of one-half of the initial dosage of the same immunogen but in incomplete Freund's adjuvant. Ten days later they received 6×10^6 TCID50 adenovirus intranasally. Thereafter, these five cohorts were divided into two groups each and challenged intranasally, about 5×10^7cfu of NTHi strain 1128. The chinchillas were subject to nasopharyngeal lavage over a 21 day period, and the lavage fluid was examined and quantified for NTHi. The NTHi concentration was determined by plating on selective media. The NTHi lavage fluid concentration was plotted over time.
Again, the NTHi lavage fluid concentration was plotted over time.

Solubility in water = assay type: physicochemical
[4] = tested on: antibodies in sera directed to NTHi; test: Anti-serum ELISA using synthetic chimeric fimbrin peptides as coating antigen; assay type: binding; details: peptide as ELISA antigen, chinchilla sera
Procedure: An anti-serum Elisa was performed by first coating an immulon 1, flat bottom plate containing 96 wells with varied concentrations of LB1 and LB2 according to the dilute checkerboard assay method. The LB1 and LB2 were diluted first in carbonate-bicarbonate buffer at pH 9.6. This coating buffer contained 1.59 g/L NaCO3, 2.93 g/L NaHCO3 at a pH of 9.6. 50 μl of the LB1 or LB2 were added for each well and incubated at 4° C. overnight. After the overnight incubation, the liquid was emptied from the plates and 100 μl per well of 10 mM PBS at pH 7.4 with 0.5% BSA was added, and incubated at 37° C. for 1 hour. Next, the liquid was emptied from the plate and washed three times with 10 mM PBS at pH 7.4 with 0.05% Tween 20 (PBT) at a volume of 250 μl per well. Then the plate was emptied by pounding three times onto paper towels. Next, 50 μl per well of the sera to be assayed was diluted in 10 mM PBS at a pH of 7.4 and added to the plate and incubated at 37° C. for one hour. The liquid was then emptied from the plates and washed three times with 10 mM PBS at pH 7.4 containing 0.05% Tween 20 (PBT) at a volume of 250 μl per well and the plates were pounded three times onto paper towels. Next, 500 μl per well of secondary antibody diluted 1 to 1000 times in PBT was added. Where the sera to be assayed was rabbit, the secondary antibody was HRP chimeric goat anti-rabbit antibody. Where the sera to be assayed was chinchilla sera, then the secondary antibody was HRP protein A. The secondary antibody was incubated at 37° C. for one hour. Next, the liquid was emptied from the plates and washed three times with 10 mM PBS at pH 7.4 containing 0.05% Tween 20. Next, one tablet o-phenylenediamine was suspended in 12 ml citrate phosphate buffer at pH 5.0. The citrate phosphate buffer contained 0.1 M citric acid, 1.0 M Na2HPO4 at pH 5.0. Next 12 μl 30% H2O2 was added to the o-phenylenediamine solution and 100 μl of this mixture was added to each well. The solution was incubated at room temperature in the dark and after 10 minutes, the absorbencies were read at 400 nm. The reaction was stopped at 16 minutes with 100μ per well of 2NH2SO4 and the plates were then read at 490 nm.

[5] = target: T2, NTHi #1128 isolated fimbrin protein (25 and 37 kDa species) (Haemophilus influenzae, UniProt P45996); assay type: binding, non-typable Haemophilus influenzae; details: rabbit antisera; fimbrin isolated from NTHi strain #1128
T2 construct: isolated, reassembled, homologous fimbrial protein from NTHi; endogenous in cells; host or cells: NTHi strain #1128 (protein isolated from the bacterial outer membrane)
T2 sequence (P45996 22-359): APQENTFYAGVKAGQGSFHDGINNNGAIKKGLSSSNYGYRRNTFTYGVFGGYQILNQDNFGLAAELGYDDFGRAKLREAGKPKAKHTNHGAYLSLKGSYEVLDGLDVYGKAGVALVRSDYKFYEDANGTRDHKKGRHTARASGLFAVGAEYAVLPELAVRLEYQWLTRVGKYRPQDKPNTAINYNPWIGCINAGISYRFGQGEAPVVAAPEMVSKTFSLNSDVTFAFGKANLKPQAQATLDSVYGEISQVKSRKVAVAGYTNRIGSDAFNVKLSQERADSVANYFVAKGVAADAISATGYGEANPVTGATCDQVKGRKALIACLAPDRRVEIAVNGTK
Procedure: Two rabbits were immunized with the LB1 synthetic chimeric fimbrin peptide and two rabbits were immunized with the LB2 synthetic chimeric fimbrin peptide. Rabbits received an initial immunizing dose of 500 μg of either the LB1 or LB2 in complete Freund's adjuvant. The rabbits received a second dose of 400 μg of the synthetic chimeric fimbrin peptide 21 days later. The rabbits received a third dose of synthetic chimeric fimbrin peptide in complete Freund's adjuvant 42 days later with 400 μg of the same peptide in either incomplete Freud's adjuvant (IFA) or phosphate buffered saline (PBS) (one rabbit per diluent). Sera was obtained 3 weeks after each dose. The sera from each animal was assessed for titer and specificity against LB1, LB2 and fimbrial protein, by both ELISA and Western blot.

NTHi strain #1128 = test: Inhibition of adherence of NTHi to active ciliated chinchilla tracheal mucosal epithelium; assay type: cell-based, non-typable Haemophilus influenzae; details: dose dependence, 50 and 100 μg/ml
Procedure: LB1 and LB2 were each added to the lumen of excised 15 chinchilla tracheas and incubated for about 1 hour. Next 10^8cFu NTHi/ml were added to the cultures and incubated for about 1 hour. The tracheas were rinsed, homogenized, diluted and plated onto chocolate agar. The NTHi colonies were then counted.

[6] = study A, chinchillas immunized with 100 μg peptide plus booster, intranasal challenge about 5×10^7 cfu NTHi strain 1128, FIG. 4
[7] = study B, higher intranasal challenge dose 1.5×10^8 cfu/animal NTHi #1128, FIG. 5

Molecule	Reciprocal Titer of Sera against: NTHi #1128 fimbrial protein [1]	Western immunoblot recognition by antisera of heterologous fimbrin [2]	Western immunoblot recognition by antisera of homologous fimbrin / peptides [2]	Recognition of native fimbriae by antiserum (immunogold labeling) [3]	NTHi in nasopharyngeal lavage fluid by Day 21 (NTHi strain 1128; [6])	NTHi in nasopharyngeal lavage fluid by Day 21 (NTHi strain 1128; [7])	solubility (Solubility in water)	Reciprocal Titer ([4]; post infection)	Reciprocal Titer ([4]; pre infection)	Western blot reactivity of antisera with fimbrin [5]	Effect on inhibition of adherence of NTHi strain #1128 to ciliated chinchilla tracheal epithelium (NTHi strain #1128)
CC[C@H](C)[C@H](NC(=O)[C@H](CC(C)C)NC(=O)[C@H](CO)NC(=O)[C@H](CC(C)C)NC(=O)[C@H](CC(C)C)NC(=O)[C@H](CCCCN)NC(=O)[C@H](CC(C)C)NC(=O)[C@H](CO)NC(=O)[C@@H]1CCCN1C(=O)CNC(=O)[C@@H](NC(=O)[C@H](CC(N)=O)NC(=O)[C@@H]1CCCN1C(=O)[C@H](CCCCN)NC(=O)[C@H](CC(=O)O)NC(=O)[C@H](CCC(N)=O)NC(=O)[C@@H]1CCCN1C(=O)[C@H](CCCNC(=N)N)NC(=O)[C@H](Cc1ccc(O)cc1)NC(=O)[C@H](CCCCN)NC(=O)CNC(=O)[C@@H](NC(=O)[C@H](CCCNC(=N)N)NC(=O)[C@@H](NC(=O)[C@H](CC(C)C)NC(=O)[C@H](Cc1c[nH]c2ccccc12)NC(=O)[C@H](CCC(N)=O)NC(=O)[C@@H](N)Cc1ccc(O)cc1)[C@@H](C)O)C(C)C)[C@@H](C)O)C(=O)N[C@@H](CCCCN)C(=O)NCC(=O)N[C@H](C(=O)N[C@H](C(=O)N[C@H](C(=O)N[C@@H](Cc1c[nH]cn1)C(=O)N[C@@H](CCCNC(=N)N)C(=O)N[C@@H](CC(C)C)C(=O)N[C@@H](CCC(=O)O)C(=O)NCC(=O)N[C@H](C(=O)N[C@@H](CCC(=O)O)C(=O)O)C(C)C)C(C)C)[C@@H](C)CC)C(C)C [LB2] (H-YQWLTRVGKYRPQDKPNTGPSLKLLSLIKGVIVHRLEGVE-OH)	10,000	recognized heterologous fimbrin contained in the outer membrane preparation	recognized homologous fimbrin	Equivalent results	0	performed less well	~10000 µg/mL (≈ 2180 µM)	500	≦100		
CC[C@H](C)[C@H](NC(=O)[C@H](CC(C)C)NC(=O)[C@H](CO)NC(=O)[C@H](CC(C)C)NC(=O)[C@H](CC(C)C)NC(=O)[C@H](CCCCN)NC(=O)[C@H](CC(C)C)NC(=O)[C@H](CO)NC(=O)[C@@H]1CCCN1C(=O)CNC(=O)[C@H](CCCCN)NC(=O)[C@H](CCCCN)NC(=O)[C@H](Cc1c[nH]cn1)NC(=O)[C@H](CC(=O)O)NC(=O)[C@H](CCCNC(=N)N)NC(=O)[C@@H](NC(=O)CNC(=O)[C@H](CC(N)=O)NC(=O)[C@H](C)NC(=O)[C@H](CC(=O)O)NC(=O)[C@H](CCC(=O)O)NC(=O)[C@H](Cc1ccc(O)cc1)NC(=O)[C@H](Cc1ccccc1)NC(=O)[C@H](CCCCN)NC(=O)[C@H](Cc1ccc(O)cc1)NC(=O)[C@H](CC(=O)O)NC(=O)[C@H](CO)NC(=O)[C@@H](N)CCCNC(=N)N)[C@@H](C)O)C(=O)N[C@@H](CCCCN)C(=O)NCC(=O)N[C@H](C(=O)N[C@H](C(=O)N[C@H](C(=O)N[C@@H](Cc1c[nH]cn1)C(=O)N[C@@H](CCCNC(=N)N)C(=O)N[C@@H](CC(C)C)C(=O)N[C@@H](CCC(=O)O)C(=O)NCC(=O)N[C@H](C(=O)N[C@@H](CCC(=O)O)C(=O)O)C(C)C)C(C)C)[C@@H](C)CC)C(C)C [LB1] (H-RSDYKFYEDANGTRDHKKGPSLKLLSLIKGVIVHRLEGVE-OH)	15,000		only recognized the LB1		0	0	~10000 µg/mL (≈ 2190 µM)	>500	≦100	sera reactivity to fimbrin (both molecular weight species) occurred only after immunization	dose-dependent effect on inhibition of adherence
fimbrin: isolated fimbrin protein preparation from NTHi strain #1128, used as comparison immunogen (protein) APQENTFYAGVKAGQGSFHDGINNNGAIKKGLSSSNYGYRRNTFTYGVFGGYQILNQDNFGLAAELGYDDFGRAKLREAGKPKAKHTNHGAYLSLKGSYEVLDGLDVYGKAGVALVRSDYKFYEDANGTRDHKKGRHTARASGLFAVGAEYAVLPELAVRLEYQWLTRVGKYRPQDKPNTAINYNPWIGCINAGISYRFGQGEAPVVAAPEMVSKTFSLNSDVTFAFGKANLKPQAQATLDSVYGEISQVKSRKVAVAGYTNRIGSDAFNVKLSQERADSVANYFVAKGVAADAISATGYGEANPVTGATCDQVKGRKALIACLAPDRRVEIAVNGTK		recognizes a heteroloous fimbrin	recognizes itself								
